For this test, the system named is C. elegans. The experiment in a line: microbe, parasite or virus in culture. Conditions: Caenorhabditis elegans.
The mark [1] stands for this setting: 0 h, read-out: Percentage of motility inhibition 0 h, Table S2, C. elegans SS assay, 110 μM, 0 h, averages of 4 data points.
[2] abbreviates: 24 h, read-out: Percentage of motility inhibition 24 h, Table S2, C. elegans SS assay, 110 μM, 24 h, averages of 4 data points.
The mark [3] stands for this setting: 0 h, read-out: Percentage of motility inhibition 0 h.

Where two headings read alike, the source gives them in different places.

With `CCCCCCCCCC(=O)O[C@H]1CC[C@H]2[C@@H]3CCC4=CC(=O)CC[C@@H]4[C@H]3CC[C@]12C` [Nandrolone decanoate], the inhibition – broadly, the change of the read-out against control, counted positive when it falls – at 110 µM under setting [1] was found to be 29% and the inhibition at 110 µM under setting [2] came to 31%.
On the same counts, the results for `COc1cc(-c2oc3cc(O)cc(O)c3c(=O)c2O[C@@H]2O[C@H](CO[C@@H]3O[C@@H](C)[C@H](O)[C@@H](O)[C@H]3O)[C@@H](O)[C@H](O)[C@H]2O)ccc1O` [Narcissin] are 42% and 25%.
Take `C[C@@H]1CCC=C2C(=O)C[C@H]3OOC(C)(C)[C@H]3[C@]21C` [Nardosinone]: the inhibition at 110 µM turned out to be 0% under setting [1] and 13% under setting [2].
On the same counts, the results for `C[C@@H]1O[C@@H](O[C@H]2[C@H](Oc3cc(O)c4c(c3)O[C@H](c3ccc(O)cc3)CC4=O)O[C@H](CO)[C@@H](O)[C@@H]2O)[C@H](O)[C@H](O)[C@H]1O` [Naringin] are 0% and 3%.
On the same counts, the results for `C[C@@H]1O[C@@H](OC[C@H]2O[C@@H](Oc3cc(O)c4c(c3)O[C@H](c3ccc(O)cc3)CC4=O)[C@H](O)[C@@H](O)[C@@H]2O)[C@H](O)[C@H](O)[C@H]1O` [Narirutin] are 39% and 19%.
For `C[C@@H]1C/C=C/C=C/C=C/C=C/[C@H](O[C@@H]2O[C@H](C)[C@@H](O)[C@H](N)[C@@H]2O)C[C@@H]2O[C@](O)(C[C@@H](O)C[C@H]3O[C@@H]3/C=C/C(=O)O1)C[C@H](O)[C@H]2C(=O)O` [Natamycin] the same measures were 26% and 0%.
Take `COc1ccc(C[C@@H]2c3cc(Oc4cc(C[C@@H]5c6cc(OC)c(OC)cc6CCN5C)ccc4O)c(OC)cc3CCN2C)cc1` [Neferine]: the inhibition at 110 µM reads like this: under setting [3], 25%; (24 h, read-out: Percentage of motility inhibition 24 h) 9%.
For the compound `C=C1CC[C@@H]2[C@](C)(CO[C@@H]3O[C@H](CO)[C@@H](O)[C@H](O)[C@H]3O)CCC[C@@]2(C)[C@@H]1CCC1=CCOC1=O` [Neoandrographolide], the inhibition at 110 µM is, setting by setting: under setting [1], 15%; under setting [2], 40%.
For `CC(C)=CCc1cc(-c2coc3cc(O)ccc3c2=O)ccc1O` [Neobavaisoflavone] the same measures were 10% and 21%.
`C[C@H](CO)C1=C(O)C(=O)c2c(ccc3c2CCCC3(C)C)C1=O` [Neocryptotanshinone]: the inhibition at 110 µM was 18% under setting [1] and 25% under setting [2].
On to `COc1ccc(CCC(=O)c2c(O)cc(O[C@@H]3O[C@H](CO)[C@@H](O)[C@H](O)[C@H]3O[C@@H]3O[C@@H](C)[C@H](O)[C@@H](O)[C@H]3O)cc2O)cc1O` [Neohesperidin dihydrochalcone], for which the inhibition at 110 µM worked out at 10% under setting [1] and 2% under setting [2].
For `CC[C@@H]1[C@H]2CCCCN3[C@H]2[C@@H](C[C@H]3[C@@H]2C[C@H](C)C(=O)O2)[C@H]2[C@@H]1OC(=O)[C@H]2C` [Neotuberostemonine] the same measures were 0% and 9%.
For `COc1ccc(-c2cc(=O)c3c(O)c(OC)c(O)c(OC)c3o2)cc1` [Nevadensin], the inhibition at 110 µM under setting [1] turned out to be 39% and the inhibition at 110 µM under setting [2] is 0%.
For `Cc1ccnc2c1NC(=O)c1cccnc1N2C1CC1` [Nevirapine] the same measures were 10% and 6%.
`O=C(O)c1cccnc1` [Niacin]: the inhibition at 110 µM by setting is: under setting [1], 0%; under setting [2], 14%.
On the same counts, the results for `CSCC1CN(/N=C/c2ccc([N+](=O)[O-])o2)C(=O)O1` (stereo not drawn) [Nifuratel] are 0% and 4%.
On the same counts, the results for `O=C(N/N=C/c1ccc([N+](=O)[O-])o1)c1cc([N+](=O)[O-])cc([N+](=O)[O-])c1O` [Nifursol] are 8% and 6%.
For `O=[N+]([O-])c1cncn1CCN1CCOCC1` [Nimorazole] the same measures were 0% and 0%.
With `CC(=O)Oc1ccccc1C(=O)Nc1ncc([N+](=O)[O-])s1` [Nitazoxanide], the inhibition at 110 µM under setting [1] was found to be 51% and the inhibition at 110 µM under setting [2] was 49%.
For `CC(=O)Nc1ncc([N+](=O)[O-])s1` [Nithiamide] the same measures were 32% and 7%.
For `O=C1CN(/N=C/c2ccc([N+](=O)[O-])o2)C(=O)N1` [Nitrofurantoin], the inhibition at 110 µM runs as follows: under setting [1], 24%; under setting [2], 4%.
On the same counts, the results for `NC(=O)N/N=C/c1ccc([N+](=O)[O-])o1` [Nitrofurazone] are 25% and 22%.
On the same counts, the results for `COc1ccc(-c2cc(=O)c3c(OC)c(OC)c(OC)c(OC)c3o2)cc1OC` [Nobiletin] are 0% and 0%.
On the same counts, the results for `C=C1C(=O)[C@]23C[C@H]1C[C@@H](O)[C@H]2[C@@]12CO[C@@H](O)[C@@H]1C(C)(C)CC[C@@H]2OC3=O` [Nodosin] are 0% and 14%.
For `CC(=O)O[C@H]1CC(=O)OC(C)(C)[C@@H]2CC(=O)[C@]3(C)[C@H](CC[C@@]4(C)[C@H](c5ccoc5)OC(=O)[C@H]5O[C@]543)[C@@]12C` [Nomilin], the inhibition at 110 µM stood at 0% under setting [1] and 22% under setting [2].
With `CCCCCCCCC(=O)NCc1ccc(O)c(OC)c1` [Nonivamide], under setting [2], the inhibition at 110 µM worked out at 0%.
In the case of `C=C(C)[C@@H]1CCC2=CC(=O)C[C@@H](C)[C@]2(C)C1` [Nootkatone], the inhibition at 110 µM was 28% under setting [1] and 20% under setting [2].
For `c1ccc2c(c1)[nH]c1cnccc12` [Norharmane] the same measures were 0% and 9%.
For `O=c1cc(-c2ccccc2)oc2c(O)c(O)cc(O)c12` [Norwogonin] the same measures were 0% and 12%.
Take `COc1cc2c3c(c1OC)-c1ccccc1C[C@H]3N(C)CC2` [Nuciferine]: the inhibition at 110 µM under setting [1] worked out at 0% and the inhibition at 110 µM under setting [2] stood at 16%.
On the same counts, the results for `Cc1onc(-c2ccccc2)c1C(=O)N1CCN(c2ccc([N+](=O)[O-])cc2Cl)CC1` [Nucleozin] are 17% and 8%.
On the same counts, the results for `CNCc1ccccc1` [N‐Methylbenzylamine] are 0% and 4%.
For `CNC(=O)c1cccnc1` [N‐Methylnicotinamide] the same measures were 3% and 0%.
Turning to `CC1COc2c(N3CCN(C)CC3)c(F)cc3c(=O)c(C(=O)O)cn1c23` (stereo not drawn) [Ofloxacin], the inhibition at 110 µM is, setting by setting: under setting [1], 2%; under setting [2], 0%.
For the compound `CC1(C)CC[C@]2(C(=O)O)CC[C@]3(C)C(=CC[C@@H]4[C@@]5(C)CCC(=O)C(C)(C)[C@@H]5CC[C@]43C)[C@@H]2C1` [Oleanonic acid], the inhibition at 110 µM under setting [3] turned out to be 15%.
On to `CCCCCCCC/C=C\CCCCCCCC(=O)O` [Oleic acid], for which the inhibition at 110 µM was 0% under setting [1] and 0% under setting [2].
Consider `C/C=C1/[C@H](O[C@@H]2O[C@H](CO)[C@@H](O)[C@H](O)[C@H]2O)OC=C(C(=O)OC)[C@H]1CC(=O)OCCc1ccc(O)c(O)c1` [Oleuropein], for which the inhibition at 110 µM reads like this: under setting [1], 0%; under setting [2], 0%.

These data come from paper PMC11855827, “High-Throughput Screening of Five Compound Libraries for Anthelmintic Activity and Toxicity Leads to the Discovery of Two Flavonoid Compounds” (International Journal of Molecular Sciences, 2025).
